{
  "source": "PubChem BioAssay (NCI)",
  "test_in_all_cases": "NCI anticancer screen, dose series, 48 h",
  "key": {"786-0 renal": {"test_system": "786-0 renal"}, "A549 NSCLC": {"test_system": "A549 NSCLC"}, "ACHN renal": {"test_system": "ACHN renal"}, "CAKI-1 renal": {"test_system": "CAKI-1 renal"}, "CCRF-CEM leukemia": {"test_system": "CCRF-CEM leukemia"}, "COLO 205 colon": {"test_system": "COLO 205 colon"}, "DLD-1 colon": {"test_system": "DLD-1 colon"}, "DMS 114 small cell lung": {"test_system": "DMS 114 small cell lung"}, "DMS 273 small cell lung": {"test_system": "DMS 273 small cell lung"}, "EKVX NSCLC": {"test_system": "EKVX NSCLC"}, "HCC-2998 colon": {"test_system": "HCC-2998 colon"}, "HCT-116 colon": {"test_system": "HCT-116 colon"}, "HCT-15 colon": {"test_system": "HCT-15 colon"}, "HL-60(TB) leukemia": {"test_system": "HL-60(TB) leukemia"}, "HOP-62 NSCLC": {"test_system": "HOP-62 NSCLC"}, "HT29 colon": {"test_system": "HT29 colon"}, "IGROV1 ovarian": {"test_system": "IGROV1 ovarian"}, "K-562 leukemia": {"test_system": "K-562 leukemia"}, "KM12 colon": {"test_system": "KM12 colon"}, "KM20L2 colon": {"test_system": "KM20L2 colon"}, "LOX IMVI melanoma": {"test_system": "LOX IMVI melanoma"}, "LXFL 529 NSCLC": {"test_system": "LXFL 529 NSCLC"}, "M14 melanoma": {"test_system": "M14 melanoma"}, "M19-MEL melanoma": {"test_system": "M19-MEL melanoma"}, "MALME-3M melanoma": {"test_system": "MALME-3M melanoma"}, "MOLT-4 leukemia": {"test_system": "MOLT-4 leukemia"}, "NCI-H226 lung": {"test_system": "NCI-H226 lung"}, "NCI-H23 lung": {"test_system": "NCI-H23 lung"}, "NCI-H460 lung": {"test_system": "NCI-H460 lung"}, "NCI-H522 lung": {"test_system": "NCI-H522 lung"}, "OVCAR-3 ovarian": {"test_system": "OVCAR-3 ovarian"}, "OVCAR-4 ovarian": {"test_system": "OVCAR-4 ovarian"}, "OVCAR-5 ovarian": {"test_system": "OVCAR-5 ovarian"}, "OVCAR-8 ovarian": {"test_system": "OVCAR-8 ovarian"}, "RPMI-8226 leukemia": {"test_system": "RPMI-8226 leukemia"}, "RXF 393 renal": {"test_system": "RXF 393 renal"}, "RXF-631 renal": {"test_system": "RXF-631 renal"}, "SF-268 CNS": {"test_system": "SF-268 CNS"}, "SF-295 CNS": {"test_system": "SF-295 CNS"}, "SF-539 CNS": {"test_system": "SF-539 CNS"}, "SK-MEL-2 melanoma": {"test_system": "SK-MEL-2 melanoma"}, "SK-MEL-5 melanoma": {"test_system": "SK-MEL-5 melanoma"}, "SK-OV-3 ovarian": {"test_system": "SK-OV-3 ovarian"}, "SN12C renal": {"test_system": "SN12C renal"}, "SNB-19 CNS": {"test_system": "SNB-19 CNS"}, "SNB-75 CNS": {"test_system": "SNB-75 CNS"}, "SR leukemia": {"test_system": "SR leukemia"}, "SW-620 colon": {"test_system": "SW-620 colon"}, "U251 CNS": {"test_system": "U251 CNS"}, "UACC-257 melanoma": {"test_system": "UACC-257 melanoma"}, "UO-31 renal": {"test_system": "UO-31 renal"}, "XF 498 CNS": {"test_system": "XF 498 CNS"}},
  "note": "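These data come from cells grown in 96-well plates and exposed to compound for 48 hours at five concentrations. Definition used: TGI = concentration required for complete inhibition of growth.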",
  "data": [
    {"smiles": "COC(=O)C1=C(C(=O)OC)C2(C)OC1C(=O)C21CC1", "note": "(configuration not stated)", "values": [
      {"measurement": "TGI", "setting": "786-0 renal", "result": "> 100", "unit": "µM"},
      {"measurement": "TGI", "setting": "A549 NSCLC", "result": "> 100", "unit": "µM"},
      {"measurement": "TGI", "setting": "ACHN renal", "result": 41.6, "unit": "µM"},
      {"measurement": "TGI", "setting": "CAKI-1 renal", "result": 44.1, "unit": "µM"},
      {"measurement": "TGI", "setting": "CCRF-CEM leukemia", "result": 39.6, "unit": "µM"},
      {"measurement": "TGI", "setting": "COLO 205 colon", "result": 56.5, "unit": "µM"},
      {"measurement": "TGI", "setting": "DLD-1 colon", "result": 51.1, "unit": "µM"},
      {"measurement": "TGI", "setting": "DMS 114 small cell lung", "result": 42.9, "unit": "µM"},
      {"measurement": "TGI", "setting": "DMS 273 small cell lung", "result": 40.2, "unit": "µM"},
      {"measurement": "TGI", "setting": "EKVX NSCLC", "result": "> 100", "unit": "µM"},
      {"measurement": "TGI", "setting": "HCC-2998 colon", "result": 53, "unit": "µM"},
      {"measurement": "TGI", "setting": "HCT-116 colon", "result": 43.4, "unit": "µM"},
      {"measurement": "TGI", "setting": "HCT-15 colon", "result": 44.6, "unit": "µM"},
      {"measurement": "TGI", "setting": "HL-60(TB) leukemia", "result": 39.6, "unit": "µM"},
      {"measurement": "TGI", "setting": "HOP-62 NSCLC", "result": "> 100", "unit": "µM"},
      {"measurement": "TGI", "setting": "HT29 colon", "result": 37, "unit": "µM"},
      {"measurement": "TGI", "setting": "IGROV1 ovarian", "result": 57.7, "unit": "µM"},
      {"measurement": "TGI", "setting": "K-562 leukemia", "result": 69.1, "unit": "µM"},
      {"measurement": "TGI", "setting": "KM12 colon", "result": "> 100", "unit": "µM"},
      {"measurement": "TGI", "setting": "KM20L2 colon", "result": 65.7, "unit": "µM"},
      {"measurement": "TGI", "setting": "LOX IMVI melanoma", "result": 45.3, "unit": "µM"},
      {"measurement": "TGI", "setting": "LXFL 529 NSCLC", "result": 35.1, "unit": "µM"},
      {"measurement": "TGI", "setting": "M14 melanoma", "result": 34.9, "unit": "µM"},
      {"measurement": "TGI", "setting": "M19-MEL melanoma", "result": "> 100", "unit": "µM"},
      {"measurement": "TGI", "setting": "MALME-3M melanoma", "result": 70.6, "unit": "µM"},
      {"measurement": "TGI", "setting": "MOLT-4 leukemia", "result": 44.9, "unit": "µM"},
      {"measurement": "TGI", "setting": "NCI-H226 lung", "result": "> 100", "unit": "µM"},
      {"measurement": "TGI", "setting": "NCI-H23 lung", "result": 51.2, "unit": "µM"},
      {"measurement": "TGI", "setting": "NCI-H460 lung", "result": 63.5, "unit": "µM"},
      {"measurement": "TGI", "setting": "NCI-H522 lung", "result": 25.9, "unit": "µM"},
      {"measurement": "TGI", "setting": "OVCAR-3 ovarian", "result": 55.8, "unit": "µM"},
      {"measurement": "TGI", "setting": "OVCAR-4 ovarian", "result": 25.1, "unit": "µM"},
      {"measurement": "TGI", "setting": "OVCAR-5 ovarian", "result": "> 100", "unit": "µM"},
      {"measurement": "TGI", "setting": "OVCAR-8 ovarian", "result": 52.8, "unit": "µM"},
      {"measurement": "TGI", "setting": "RPMI-8226 leukemia", "result": 42.7, "unit": "µM"},
      {"measurement": "TGI", "setting": "RXF 393 renal", "result": 32.3, "unit": "µM"},
      {"measurement": "TGI", "setting": "RXF-631 renal", "result": 36.1, "unit": "µM"},
      {"measurement": "TGI", "setting": "SF-268 CNS", "result": "> 100", "unit": "µM"},
      {"measurement": "TGI", "setting": "SF-295 CNS", "result": "> 100", "unit": "µM"},
      {"measurement": "TGI", "setting": "SF-539 CNS", "result": 41.5, "unit": "µM"},
      {"measurement": "TGI", "setting": "SK-MEL-2 melanoma", "result": "> 100", "unit": "µM"},
      {"measurement": "TGI", "setting": "SK-MEL-5 melanoma", "result": "> 100", "unit": "µM"},
      {"measurement": "TGI", "setting": "SK-OV-3 ovarian", "result": "> 100", "unit": "µM"},
      {"measurement": "TGI", "setting": "SN12C renal", "result": 43.4, "unit": "µM"},
      {"measurement": "TGI", "setting": "SNB-19 CNS", "result": "> 100", "unit": "µM"},
      {"measurement": "TGI", "setting": "SNB-75 CNS", "result": 99.7, "unit": "µM"},
      {"measurement": "TGI", "setting": "SR leukemia", "result": 44.6, "unit": "µM"},
      {"measurement": "TGI", "setting": "SW-620 colon", "result": 38.6, "unit": "µM"},
      {"measurement": "TGI", "setting": "U251 CNS", "result": "> 100", "unit": "µM"},
      {"measurement": "TGI", "setting": "UACC-257 melanoma", "result": "> 100", "unit": "µM"},
      {"measurement": "TGI", "setting": "UO-31 renal", "result": "> 100", "unit": "µM"},
      {"measurement": "TGI", "setting": "XF 498 CNS", "result": 26.5, "unit": "µM"}
    ]}
  ]
}
